Activity calls are given as the source filed them. The calls are words filed in the database; no cut-off is given here.
Assays:
[1] = test system: MDA-MB-231; assay: Cytotoxicity against human MDA-MB-231 cells assessed as reduction in cell viability incubated for 6 days by SRB assay; assay type: functional, cell-based
[2] = test system: MCF7; assay: Cytotoxicity against human MCF7 cells assessed as reduction in cell viability incubated for 6 days by SRB assay; assay type: functional, cell-based
[3] = test system: SK-BR-3; assay: Cytotoxicity against human SK-BR-3 cells assessed as reduction in cell viability incubated for 6 days by SRB assay; assay type: functional, cell-based
[4] = test system: MDA-MB-231; assay: Induction of cell cycle arrest in human MDA-MB-231 cells assessed as reduction in G1 phase at IC25 concentration incubated for 6 days by PI staining based flow cytometric analysis; assay type: functional; details: time 6.0 day
[5] = test system: SK-BR-3; assay: Induction of cell cycle arrest in human SK-BR-3 cells assessed as accumulation of cells at G2/M phase at IC25 concentration incubated for 6 days by PI staining based flow cytometric analysis; assay type: functional; details: time 6.0 day
[6] = test system: SK-BR-3; assay: Induction of cell cycle arrest in human SK-BR-3 cells assessed as accumulation of cells at G2/M phase at IC50 concentration incubated for 6 days by PI staining based flow cytometric analysis; assay type: functional; details: time 6.0 day
[7] = test system: MCF7; assay: Induction of DNA damage in human MCF7 cells assessed as increase in gamma-H2AX level at IC25 concentration incubated for 6 days by flow cytometric analysis; assay type: functional, cell-based; details: time 6.0 day
[8] = test system: MCF7; assay: Induction of DNA damage in human MCF7 cells assessed as increase in gamma-H2AX level at IC50 concentration incubated for 6 days by flow cytometric analysis; assay type: functional, cell-based; details: time 6.0 day
[9] = test system: Quadruplex DNA; assay: Stabilization of G4 quadruplex DNA (unknown origin) in human MCF7 cells at IC25 concentration incubated for 6 days by flow cytometric analysis; assay type: cell-based; details: time 6.0 day
[10] = test system: Quadruplex DNA; assay: Stabilization of G4 quadruplex DNA (unknown origin) in human SK-BR-3 cells assessed as increase in G4 motif at IC50 concentration incubated for 6 days by flow cytometric analysis; assay type: cell-based; details: time 6.0 day
[11] = test system: SK-BR-3; assay: Induction of DNA damage in human SK-BR-3 cells assessed as increase in gamma-H2AX level at IC25 concentration incubated for 6 days by flow cytometric analysis; assay type: functional, cell-based; details: time 6.0 day
[12] = test system: SK-BR-3; assay: Induction of DNA damage in human SK-BR-3 cells assessed as increase in gamma-H2AX level at IC50 concentration incubated for 6 days by flow cytometric analysis; assay type: functional, cell-based; details: time 6.0 day
[13] = test system: MCF7; assay: Downregulation of c-MYC protein expression in human MCF7 cells at IC25 concentration incubated for 6 days by Western blotting analysis; assay type: functional, cell-based; details: time 6.0 day
[14] = test system: Quadruplex DNA; assay: Binding affinity to c-Myc G4 quadruplex DNA (TGAGGGTGGGTAGGGTGGGTAA) (unknown origin) assessed as equilibrium binding constant (Ka) by ITC analysis; assay type: nucleic-acid assay
[15] = test system: Quadruplex DNA; assay: Binding affinity to HER2 G4 quadruplex DNA (GGAGAAGGAGGAGGTGGAGGAGGAGGG) (unknown origin) assessed as equilibrium binding constant (Ka) by ITC analysis; assay type: nucleic-acid assay
[16] = test system: Quadruplex DNA; assay: Binding affinity to c-Myc G4 quadruplex DNA (TGAGGGTGGGTAGGGTGGGTAA) (unknown origin) assessed as Gibbs free energy by ITC analysis; assay type: nucleic-acid assay
[17] = test system: Quadruplex DNA; assay: Binding affinity to HER2 G4 quadruplex DNA (GGAGAAGGAGGAGGTGGAGGAGGAGGG) (unknown origin) assessed as Gibbs free energy by ITC analysis; assay type: nucleic-acid assay
[18] = test system: Quadruplex DNA; assay: Binding affinity to c-Myc G4 quadruplex DNA (TGAGGGTGGGTAGGGTGGGTAA) (unknown origin) assessed as binding enthalpy by ITC analysis; assay type: nucleic-acid assay
[19] = test system: Quadruplex DNA; assay: Binding affinity to HER2 G4 quadruplex DNA (GGAGAAGGAGGAGGTGGAGGAGGAGGG) (unknown origin) assessed as binding enthalpy by ITC analysis; assay type: nucleic-acid assay
[20] = test system: Quadruplex DNA; assay: Binding affinity to c-Myc G4 quadruplex DNA (TGAGGGTGGGTAGGGTGGGTAA) (unknown origin) assessed as change in entropy by ITC analysis; assay type: nucleic-acid assay
[21] = test system: Quadruplex DNA; assay: Binding affinity to HER2 G4 quadruplex DNA (GGAGAAGGAGGAGGTGGAGGAGGAGGG) (unknown origin) assessed as change in entropy by ITC analysis; assay type: nucleic-acid assay
[22] = test system: Quadruplex DNA; details: time 10.0 min
[23] = test system: Quadruplex DNA; details: time 10.0 min; remark: listed apart in the source
[24] = test system: Quadruplex DNA; details: time 10.0 min; remark: listed apart in the source
[25] = test system: Quadruplex DNA; details: time 10.0 min; remark: listed apart in the source
[26] = test system: Quadruplex RNA; details: time 10.0 min
[27] = test system: Quadruplex RNA; details: time 10.0 min; remark: listed apart in the source

## CC[C@@]1(O)C(=O)OCc2c1cc1n(c2=O)Cc2c-1nc1ccccc1c2CCNC(C)C [BELOTECAN]
[1]; Homo sapiens, MDA-MB-231, 144 h
  IC50: 2.4 nM
[1]; time 6 day
  IC25: 1.4 10^-3microM
[2]; Homo sapiens, MCF7, 144 h
  IC50: 1.2 nM
[2]; time 6 day
  IC25: 0.5 10^-3microM
[3]; Homo sapiens, SK-BR-3, 144 h
  IC50: 2 nM
[3]; time 6 day
  IC25: 0.9 10^-3microM
[4]
  Activity: Active
[5]
  Activity: Active
[6]
  Activity: Active
[7]
  Activity: Active; Slightly Lower Dna Damage Observed
[8]
  Activity: Active; Slightly Lower Dna Damage Observed
[9]
  Activity: Active
[10]
  Activity: Active
[11]
  Activity: Active; Slightly Lower Dna Damage Observed
[12]
  Activity: Active; Slightly Lower Dna Damage Observed
[13]
  Activity: Active
[14]
  Ka: 2.3 10^5/M
[15]
  Ka: 2.3 10^5/M
[16]
  deltaG: -7.29 kcal/mol
[17]
  deltaG: -7.31 kcal/mol
[18]
  deltaH: -5.5 kcal/mol
[19]
  deltaH: -6.69 kcal/mol
[20]
  TdeltaS: 1.79 kcal/mol
[21]
  TdeltaS: 0.621 kcal/mol
[22]
  deltaTm1/2: 15.9 °C
[23]
  deltaTm1/2: 7.5 °C
[24]
  deltaTm1/2: 16.2 °C
[25]
  deltaTm1/2: 12.7 °C
[26]
  deltaTm1/2: 14.7 °C
[27]
  deltaTm1/2: 6.6 °C

Reference: ChEMBL document CHEMBL6153050, “Repurposing FDA-approved drugs to target G-quadruplexes in breast cancer” (Eur J Med Chem, 2025)
